The test addresses T1, human APJ receptor (Homo sapiens, UniProt P35414).
T1 construct: expressed in transfected cells; host or cells: HEK293
T1 sequence (P35414 1-380): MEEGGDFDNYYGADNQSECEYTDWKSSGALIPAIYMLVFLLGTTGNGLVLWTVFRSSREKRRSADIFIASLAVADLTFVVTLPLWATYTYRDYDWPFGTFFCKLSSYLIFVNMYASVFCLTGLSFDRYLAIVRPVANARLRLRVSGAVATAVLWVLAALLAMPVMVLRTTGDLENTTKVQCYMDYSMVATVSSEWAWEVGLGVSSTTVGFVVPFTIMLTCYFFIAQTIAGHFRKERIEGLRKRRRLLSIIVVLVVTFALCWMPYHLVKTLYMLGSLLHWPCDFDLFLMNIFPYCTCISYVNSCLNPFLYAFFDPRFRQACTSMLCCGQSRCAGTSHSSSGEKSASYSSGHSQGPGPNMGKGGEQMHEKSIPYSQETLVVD
Description: Intracellular cAMP accumulation assay (APJ hcAMP, HTRF). The class given is cell-based. Conditions: HEK293 cells stably expressing human APJ receptor; inhibition of forskolin-mediated cAMP production; read-out: APJ cAMP Potency range. A digest of the protocol: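 HEK293 cells stably expressing the receptor (5,000/well) treated with compound plus […] and 2 μM forskolin for 30 min at room temperature; cAMP by HTRF against a cAMP standard curve. EC50 from variable-slope sigmoidal fit; Ymax as % of (Pyr1)apelin-13 inhibition.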
Background: Cyclic AMP is a second messenger, typically raised through Gs and lowered through Gi signalling.

Drawing on patent publication US11390616B2 (BRISTOL-MYERS SQUIBB COMPANY, priority 2015, dated 2022), this text covers EC50 for 27 compounds.

For the compound `CCCCc1nc(=O)c(Cc2ccc(-c3ccc(F)nc3)cc2)c(O)n1-c1c(CC)cccc1CC` [Example 65, 2-butyl-1-(2,6-diethylphenyl)-5-{[4-(6-fluoropyridin-3-yl)phenyl]methyl}-6-hydroxy-1,4-dihydropyrimidin-4-one], the EC50 lay in the range of 0.01 to 10 nM.
Consider `CCCCc1nc(O)c(Cc2ccc(-c3ccc(C)nc3)cc2)c(=O)n1-c1c(OC)cccc1OC` [Example 44, 2-butyl-3-(2,6-dimethoxyphenyl)-6-hydroxy-5-{[4-(6-methylpyridin-3-yl)phenyl]methyl}-3,4-dihydropyrimidin-4-one], for which the EC50 is 10 to 100 nM.
As to `CCc1cccc(CC)c1-n1c(-c2ccn(CC)n2)nc(=O)c(Cc2ccc(-c3ccnc(F)c3C)c(F)c2)c1O` [Example 77, 1-(2,6-diethylphenyl)-2-(1-ethyl-1H-pyrazol-3-yl)-5-{[3-fluoro-4-(2-fluoro-3-methylpyridin-4-yl)phenyl]methyl}-6-hydroxy-1,4-dihydropyrimidin-4-one], the EC50 was 0.01 to 10 nM.
For `CCOCc1nc(=O)c(Cc2ccc(-c3ccnc(F)c3C)cc2)c(O)n1[C@@H](COC)c1cc(F)cc(F)c1` [Example 126, 1-[(1R)-1-(3,5-difluorophenyl)-2-methoxyethyl]-2-(ethoxymethyl)-5-{[4-(2-fluoro-3-methylpyridin-4-yl)phenyl]methyl}-6-hydroxy-1,4-dihydropyrimidin-4-one] the value was 0.01 to 10 nM; for `CCCCc1nc(O)c(Cc2ccc(-c3ccc(Cl)cn3)cc2)c(=O)n1-c1c(OC)cccc1OC` [Example 46, 2-butyl-5-{[4-(5-chloropyridin-2-yl)phenyl]methyl}-3-(2,6-dimethoxyphenyl)-6-hydroxy-3,4-dihydropyrimidin-4-one], 0.01 to 10 nM.
As to `CC[C@@H](c1cc(F)cc(F)c1)n1c(CCC2CC2)nc(=O)c(Cc2ccc(-c3ccc(F)nc3C)cc2)c1O` [Example 107, 2-(2-cyclopropylethyl)-1-[(1S)-1-(3,5-difluorophenyl)propyl]-5-{[4-(6-fluoro-2-methylpyridin-3-yl)phenyl]methyl}-6-hydroxy-1,4-dihydropyrimidin-4-one], the EC50 is 0.01 to 10 nM.
`CCCCc1nc(=O)c(Cc2ccc(-c3ccnc(F)c3C)cc2)c(O)n1[C@@H](CC)c1cccc(F)c1` [Example 103, 2-butyl-5-{[4-(2-fluoro-3-methylpyridin-4-yl)phenyl]methyl}-1-[(1S)-1-(3-fluorophenyl)propyl]-6-hydroxy-1,4-dihydropyrimidin-4-one]: the EC50 is 0.01 to 10 nM.
For `CCCCc1nc(O)c(Cc2ccc(-n3cccn3)cc2)c(=O)n1-c1c(OC)cccc1OC` [Example 5, 2-butyl-3-(2,6-dimethoxyphenyl)-6-hydroxy-5-{[4-(1H-pyrazol-1-yl)phenyl]methyl}-3,4-dihydropyrimidin-4-one] the value was 0.01 to 10 nM; for `CCc1cccc(CC)c1-n1c(-c2csc(C)n2)nc(=O)c(Cc2ccc(-c3ccc(F)nc3C)c(F)c2)c1O` [Example 72, 1-(2,6-diethylphenyl)-5-{[3-fluoro-4-(6-fluoro-2-methylpyridin-3-yl)phenyl]methyl}-6-hydroxy-2-(2-methyl-1,3-thiazol-4-yl)-1,4-dihydropyrimidin-4-one], 0.01 to 10 nM.
The result for `CCCCc1nc(=O)c(Cc2ccc(C3CC3)cc2)c(O)n1-c1c(CC)cccc1CC` [Example 67, 2-butyl-5-[(4-cyclopropylphenyl)methyl]-1-(2,6-diethylphenyl)-6-hydroxy-1,4-dihydropyrimidin-4-one] reads 0.01 to 10 nM; that for `COc1cccc(OC)c1-n1c(CCC(C)C)nc(O)c(Cc2ccc(-c3ncon3)cc2)c1=O` [Example 17, 3-(2,6-dimethoxyphenyl)-6-hydroxy-2-(3-methylbutyl)-5-{[4-(1,2,4-oxadiazol-3-yl)phenyl]methyl}-3,4-dihydropyrimidin-4-one], 10 to 100 nM.
For `CCCCc1nc(O)c(Cc2ccc(C(=O)NCC)cc2)c(=O)n1-c1c(OC)cccc1OC` [Example 15, 4-{[2-butyl-1-(2,6-dimethoxyphenyl)-4-hydroxy-6-oxo-1,6-dihydropyrimidin-5-yl]methyl}-N-ethylbenzamide] the value was 10 to 100 nM; for `CCn1ccc(-c2nc(=O)c(Cc3ccc(-c4ccncc4C)cc3)c(O)n2-c2c(OC)cccc2OC)n1` [Example 62, 1-(2,6-dimethoxyphenyl)-2-(1-ethyl-1H-pyrazol-3-yl)-6-hydroxy-5-{[4-(3-methylpyridin-4-yl)phenyl]methyl}-1,4-dihydropyrimidin-4-one], 0.01 to 10 nM.
Take `CCn1ccc(-c2nc(=O)c(Cc3ccc(-c4ccnc(F)c4C)cc3)c(O)n2-c2c(OC)cccc2OC)n1` [Example 63, 1-(2,6-dimethoxyphenyl)-2-(1-ethyl-1H-pyrazol-3-yl)-5-{[4-(2-fluoro-3-methylpyridin-4-yl)phenyl]methyl}-6-hydroxy-1,4-dihydropyrimidin-4-one]: the EC50 lay in the range of 0.01 to 10 nM.
The result for `CCCCc1nc(O)c(Cc2cnn(-c3ccc(C)cc3)c2)c(=O)n1-c1c(OC)cccc1OC` [Example 25, 2-butyl-3-(2,6-dimethoxyphenyl)-6-hydroxy-5-{[1-(4-methylphenyl)-1H-pyrazol-4-yl]methyl}-3,4-dihydropyrimidin-4-one] reads 0.01 to 10 nM.
For `CCCCc1nc(O)c(Cc2ccc(-c3ncon3)cc2F)c(=O)n1-c1c(OC)cccc1OC` [Example 6, 2-butyl-3-(2,6-dimethoxyphenyl)-5-{[2-fluoro-4-(1,2,4-oxadiazol-3-yl)phenyl]methyl}-6-hydroxy-3,4-dihydropyrimidin-4-one] the value was 0.01 to 10 nM; for `CC[C@@H](c1cc(F)cc(F)c1)n1c(COC(C)C)nc(=O)c(Cc2ccc(-c3ccc(F)nc3C)cc2)c1O` [Example 112, 1-[(1S)-1-(3,5-difluorophenyl)propyl]-5-{[4-(6-fluoro-2-methylpyridin-3-yl)phenyl]methyl}-6-hydroxy-2-[(propan-2-yloxy)methyl]-1,4-dihydropyrimidin-4-one], 0.01 to 10 nM; for `CCCCc1nc(=O)c(Cc2ccc(-c3ccc(F)nc3C)cc2)c(O)n1[C@@H](CC)c1cccc(F)c1` [Example 104, 2-butyl-5-{[4-(6-fluoro-2-methylpyridin-3-yl)phenyl]methyl}-1-[(1S)-1-(3-fluorophenyl)propyl]-6-hydroxy-1,4-dihydropyrimidin-4-one], 0.01 to 10 nM.
The result for `CCCCc1nc(O)c(Cc2ccc(N3CCOCC3)cc2)c(=O)n1-c1c(OC)cccc1OC` [Example 36, 2-butyl-3-(2,6-dimethoxyphenyl)-6-hydroxy-5-{[4-(morpholin-4-yl)phenyl]methyl}-3,4-dihydropyrimidin-4-one] reads 0.01 to 10 nM; that for `COc1cccc(OC)c1-n1c(CCC(C)C)nc(O)c(Cc2coc(-c3ccc(Cl)cc3)n2)c1=O` [Example 18, 5-{[2-(4-chlorophenyl)-1,3-oxazol-4-yl]methyl}-3-(2,6-dimethoxyphenyl)-6-hydroxy-2-(3-methylbutyl)-3,4-dihydropyrimidin-4-one], 10 to 100 nM; that for `CCCCc1nc(O)c(Cc2ccc(-c3ccc(OC)cc3)nc2)c(=O)n1-c1c(OC)cccc1OC` [Example 29, 2-butyl-3-(2,6-dimethoxyphenyl)-6-hydroxy-5-{[6-(4-methoxyphenyl)pyridin-3-yl]methyl}-3,4-dihydropyrimidin-4-one], 0.01 to 10 nM.
In the case of `CC(C)[C@@H](c1cc(F)cc(F)c1)n1c(CCC2CC2)nc(=O)c(Cc2ccc(-c3ccc(F)cc3C(N)=O)cc2)c1O` [Example 117, 4′-{[2-(2-cyclopropylethyl)-1-[(1S)-1-(3,5-difluorophenyl)-2-methylpropyl]-6-hydroxy-4-oxo-1,4-dihydropyrimidin-5-yl]methyl}-4-fluoro-[1,1′-biphenyl]-2-carboxamide], the EC50 lay within 0.01 to 10 nM.
As for `CC[C@@H](c1cc(F)cc(F)c1)n1c(COC(C)C)nc(=O)c(Cc2ccc(-c3ccnc(F)c3C)cc2)c1O` [Example 108, 1-[(1S)-1-(3,5-difluorophenyl)propyl]-5-{[4-(2-fluoro-3-methylpyridin-4-yl)phenyl]methyl}-6-hydroxy-2-[(propan-2-yloxy)methyl]-1,4-dihydropyrimidin-4-one], the EC50 is 0.01 to 10 nM.
For `CC[C@@H](c1cc(F)cc(F)c1)n1c(-c2ccn(CC)n2)nc(=O)c(Cc2ccc(-c3ccc(F)nc3)cc2)c1O` [Example 135, 1-[(1S)-1-(3,5-difluorophenyl)propyl]-2-(1-ethyl-1H-pyrazol-3-yl)-5-{[4-(6-fluoropyridin-3-yl)phenyl]methyl}-6-hydroxy-1,4-dihydropyrimidin-4-one] the value was 0.01 to 10 nM; for `CCCCc1nc(O)c(Cc2ccccc2)c(=O)n1-c1c(OC)cccc1OC` [Example 19, 5-benzyl-2-butyl-3-(2,6-dimethoxyphenyl)-6-hydroxy-3,4-dihydropyrimidin-4-one], 10 to 100 nM.
For `CCc1cccc(CC)c1-n1c(-c2ccn(C(C)C)n2)nc(=O)c(Cc2ccc(-c3cccn(C)c3=O)c(F)c2)c1O` [Example 87, 1-(2,6-diethylphenyl)-5-{[3-fluoro-4-(1-methyl-2-oxo-1,2-dihydropyridin-3-yl)phenyl]methyl}-6-hydroxy-2-[1-(propan-2-yl)-1H-pyrazol-3-yl]-1,4-dihydropyrimidin-4-one] the value was 0.01 to 10 nM; for `COc1cccc(OC)c1-n1c(CCC2CC2)nc(O)c(Cc2ccc(-n3ccccc3=O)cc2)c1=O` [Example 41, 2-(2-cyclopropylethyl)-3-(2,6-dimethoxyphenyl)-6-hydroxy-5-{[4-(2-oxo-1,2-dihydropyridin-1-yl)phenyl]methyl}-3,4-dihydropyrimidin-4-one], 0.01 to 10 nM.
